{"source": "paper PMC4575908", "about": "(Chemistry & biology, 2015)", "key": {"[1]": {"test_system": "CPT-11-induced diarrhea in mice", "conditions": "CPT-11 50 mg/kg i.p. without inhibitor"}, "[2]": {"test_system": "patients", "conditions": "cited from earlier work"}}, "note": "“And” between values parts separate entries of the source, which are not always exact repeats. Identical values can stand only once. Like-named read-outs stand apart in the source and are kept apart here."}
{"smiles": "CCc1c2c(nc3ccc(OC(=O)N4CCC(N5CCCCC5)CC4)cc13)-c1cc3c(c(=O)n1C2)COC(=O)[C@]3(O)CC", "note": "[CPT-11, Irinotecan]", "values": [{"measurement": "mice with bloody diarrhea", "setting": "[1]; day 8, 50 mg/kg", "result": "~ 25% and 25%"}, {"measurement": "mice with bloody diarrhea", "setting": "[1]; day 9, 50 mg/kg", "result": "~ 60% and 60%"}, {"measurement": "mice with bloody diarrhea", "setting": "[1]; day 10", "result": 100, "unit": "%"}, {"measurement": "patients showing grade 3–4 diarrhea", "setting": "[2]; human, in vivo", "result": 31, "unit": "%"}, {"measurement": "patients experiencing diarrhea", "setting": "[2]; ref Food and Drug Administration package insert for irinotecan", "result": "up to 88%"}]}
